Assay results taken from patent US12156920B2, “Double-labeled probe for molecular imaging and use thereof” (Deutsches Krebsforschungszentrum, priority 2017, dated 2024).
“And” between values parts separate entries of the source, which are not always exact repeats. Equal entries are not always repeated. Blank lines part the entries; values can stand above or below the molecule they belong to.

Legend:
[1] = biological target: T1, PSMA (Homo sapiens, UniProt Q04609); assay: Competitive cell binding assay on LNCaP cells (PSMA binding affinity); settings: competition against 0.2 nM 68Ga-labeled PSMA-10
T1 construct: endogenous in cells; host or cells: LNCaP cells (ATCC CRL-1740)
T1 sequence (Q04609 whole entry): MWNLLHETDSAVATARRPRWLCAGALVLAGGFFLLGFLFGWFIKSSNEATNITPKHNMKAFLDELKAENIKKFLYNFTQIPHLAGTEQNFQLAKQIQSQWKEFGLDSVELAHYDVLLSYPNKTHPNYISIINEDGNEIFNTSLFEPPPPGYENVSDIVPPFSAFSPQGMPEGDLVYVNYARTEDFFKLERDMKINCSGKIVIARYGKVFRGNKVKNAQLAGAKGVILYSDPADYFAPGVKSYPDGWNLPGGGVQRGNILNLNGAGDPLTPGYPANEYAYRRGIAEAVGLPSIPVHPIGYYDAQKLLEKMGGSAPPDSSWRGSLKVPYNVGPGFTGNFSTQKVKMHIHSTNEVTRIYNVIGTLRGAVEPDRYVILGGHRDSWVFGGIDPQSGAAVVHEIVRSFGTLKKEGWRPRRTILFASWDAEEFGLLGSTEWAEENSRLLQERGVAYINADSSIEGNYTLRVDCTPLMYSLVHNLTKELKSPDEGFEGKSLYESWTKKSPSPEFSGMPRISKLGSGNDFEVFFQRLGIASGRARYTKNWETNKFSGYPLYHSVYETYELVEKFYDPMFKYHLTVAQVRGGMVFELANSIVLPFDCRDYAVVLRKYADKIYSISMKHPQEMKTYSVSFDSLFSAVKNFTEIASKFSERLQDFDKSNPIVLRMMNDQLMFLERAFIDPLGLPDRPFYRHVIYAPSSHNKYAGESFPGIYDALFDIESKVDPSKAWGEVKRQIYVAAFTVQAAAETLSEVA
Description: (§1) PSMA^+ LNCaP cells (ATCC CRL-1740) were cultured in RPMI medium supplemented with 10% fetal calf serum and 2 mmol/L L-glutamine (all from PAA). Cells were grown at 37° C. in humidified air with 5% CO2 and were harvested using trypsin-ethylenediaminetetraacetic acid (trypsin-EDTA; 0.25% trypsin, 0.02% EDTA, Invitrogen).
The competitive cell binding assay and internalization experiments were performed as described previously (4). Briefly, the cells (10^5 per well) were incubated with a 0.2 nM solution of ^68Ga-labeled radioligand [Glu-urea-Lys(Ahx)]2-HBED-CC (PSMA-10, precursor ordered from ABX, Radeberg, Germany) in the presence of 12 different concentrations of analyte (0-5000 nM, 100 μL/well). After incubation, the mixture was removed and the wells were washed 3 times with PBS using a multiscreen vacuum manifold (Millipore, Billerica, Mass.). Cell-bound radioactivity was measured using a gamma counter (Packard Cobra II, GMI, Minnesota, USA). The 50% inhibitory concentration (IC50) values were calculated by fitting the data using a nonlinear regression algorithm (GraphPad Software).

[2] = system: PSMA+ LNCaP cells; assay: Internalization experiments (specific cell surface bound and internalized fractions); format: cell-based; settings: 68Ga-labeled compound 30 nM, 45 min
Description: as §1
For internalization experiments, 10^5 cells per well were seeded in poly-L-lysine coated 24-well cell culture plates 24 h before incubation. After washing, the cells were incubated with 30 nM of the radiolabeled compound for 45 min at 37° C. and at 4° C., respectively. Cellular uptake was terminated by washing 3 times with 1 mL of ice-cold PBS. To remove surface-bound radioactivity, cells were incubated twice with 0.5 mL glycine-HCl in PBS (50 mM, pH=2.8) for 5 min. The cells were washed with 1 mL of ice-cold PBS and lysed using 0.3 N NaOH (0.5 mL). The surface-bound and the internalized fractions were measured in a gamma counter. The cell uptake was calculated as percent of the initially added radioactivity bound to 10^5 cells [% ID/10^5 cells].

[3] = system: LNCaP-tumor bearing balb/c nu/nu mice; assay: Biodistribution (organ distribution) of 68Ga-labeled compounds; format: in vivo; settings: 68Ga labeled
Description: (§2) The precursor peptides [1 nmol in HEPES buffer (580 mg/ml), 90 μL] were added to 40 μL [^68Ga]Ga^3+ eluate (˜40 MBq). The pH was adjusted to 3.8 using 30% NaOH and 10% NaOH, respectively. The reaction mixture was incubated at 98° C. for 10 minutes. The radiochemical yield (RCY) was determined by HPLC. For the experimental tumor models 5×10^6 cells of LNCaP (in 50% Matrigel; Becton Dickinson, Heidelberg, Germany) were subcutaneously inoculated into the right trunk of 7- to 8-week-old male BALB/c nu/nu mice (Charles River). The tumors were allowed to grow until approximately 1 cm^3 in size. The ^68Ga-labeled compounds were injected into a tail vein (1-2 MBq; 60 pmol). […] Organs of interest were dissected, blotted dry, and weighed. The radioactivity was measured using a gamma counter and calculated as % ID/g. All animal experiments complied with the current laws of the Federal Republic of Germany.

[4] = as above; format: in vivo, mice; settings: male, BALB/c nu/nu, mouse, in vivo, iv, 60 pmol, total radioactivity
Description: as §2

Ki [1]: 9.82 ± 1.26 nM
Organ distribution Liver [3]: 0.34 % ID/g
Organ distribution Lung [3]: 1.19 % ID/g
Tumor-to-Organ ratio T/Blood ([3]; 1 h p.i.): 9.23
Tumor-to-Organ ratio T/Brain ([3]; 1 h p.i.): 12.23
Tumor-to-Organ ratio T/Heart ([3]; 1 h p.i.): 5.89
Tumor-to-Organ ratio T/Intestine ([3]; 1 h p.i.): 4.29
Tumor-to-Organ ratio T/Kidney ([3]; 1 h p.i.): 0.04
Tumor-to-Organ ratio T/Liver ([3]; 1 h p.i.): 3.42
Tumor-to-Organ ratio T/Lung ([3]; 1 h p.i.): 2.07
Tumor-to-Organ ratio T/Muscle ([3]; 1 h p.i.): 4.89
Tumor-to-Organ ratio T/Spleen ([3]; 1 h p.i.): 0.27
Organ distribution Tumor (tumor accumulation) ([3]; 1 h p.i., LNCaP tumor): 4.89±1.34 % ID/g and 4.89 % ID/g
Organ distribution Blood ([3]; 1 h p.i., tail vein): 0.53 % ID/g
Organ distribution Brain ([3]; 1 h p.i., tail vein): 0.40 % ID/g
Organ distribution Heart ([3]; 1 h p.i., tail vein): 0.83 % ID/g
Organ distribution Intestine ([3]; 1 h p.i., tail vein): 1.14 % ID/g
Organ distribution Kidney ([3]; 1 h p.i., tail vein): 139.44 % ID/g
Organ distribution Liver ([3]; 1 h p.i., tail vein): 1.43 % ID/g
Organ distribution Lung ([3]; 1 h p.i., tail vein): 2.36 % ID/g
Organ distribution Muscle ([3]; 1 h p.i., tail vein): 1.00 % ID/g
Organ distribution Spleen ([3]; 1 h p.i., tail vein): 17.88 % ID/g
Organ distribution Blood ([3]; 2 h p.i.): 0.32 % ID/g
Organ distribution Brain ([3]; 2 h p.i.): 0.23 % ID/g
Organ distribution Heart ([3]; 2 h p.i.): 0.31 % ID/g
Organ distribution Intestine ([3]; 2 h p.i.): 1.19 % ID/g
Organ distribution Kidney ([3]; 2 h p.i.): 129.73 % ID/g
Organ distribution Muscle ([3]; 2 h p.i.): 2.06 % ID/g
Organ distribution Spleen ([3]; 2 h p.i.): 12.41 % ID/g
Organ distribution Tumor ([3]; 2 h p.i., LNCaP tumor): 6.09 % ID/g
Compound: O=C(O)CCc1ccc(O)c(CN(CCN(CC(=O)O)Cc2cc(CCC(=O)NCCCCCC(=O)NCCCCC(NC(=O)NC(CCC(=O)O)C(=O)O)C(=O)O)ccc2O)CC(=O)O)c1 (stereo not drawn) [PSMA-11, Glu-urea-Lys-(Ahx)-HBED-CC, reference compound]
Specific cell surface bound [2]: 2.31 ± 0.61 % ID/10^5 cells
Specific internalized [2]: 3.57 ± 0.51 % ID/10^5 cells

Compound: CC1(C)C(/C=C/C2=C(Oc3ccc(S(=O)(=O)O)cc3)C(=C\C=C3/N(CCCCS(=O)(=O)O)c4ccc(S(=O)(=O)O)cc4C3(C)C)/CCC2)=[N+](CCCCCC(=O)NCCOCCOCCNC(=O)CCc2ccc(O)c(CN(CCN(CC(=O)O)Cc3cc(CCC(=O)NCc4cn(CCCCC(=O)NC(CCC(=O)O)C(=O)NC(Cc5cnc[nH]5)C(=O)NCCCCC(NC(=O)NC(CCC(=O)O)C(=O)O)C(=O)O)nn4)ccc3O)CC(=O)O)c2)c2ccc(S(=O)(=O)O)cc21 (stereo not drawn) [PSMA-(HE)1-HBED-CC-PEG2-IRDye800CW, Glu-urea-Lys-(HE)1-HBED-CC-PEG2-IRDye800CW]
tissue uptake at 1 h ([4]; Organ distribution Blood): 1.52 %ID/g
tissue uptake at 1 h ([4]; Organ distribution Brain): 0.3 %ID/g
tissue uptake at 1 h ([4]; Organ distribution Heart): 0.94 %ID/g
tissue uptake at 1 h ([4]; Organ distribution Intestine): 1.29 %ID/g
tissue uptake at 1 h ([4]; Organ distribution Kidney): 84.3 %ID/g
tissue uptake at 1 h ([4]; Organ distribution Liver): 1.19 %ID/g
tissue uptake at 1 h ([4]; Organ distribution Lung): 2.46 %ID/g
tissue uptake at 1 h ([4]; Organ distribution Muscle): 1.03 %ID/g
tissue uptake at 1 h ([4]; Organ distribution Spleen): 8.17 %ID/g
tissue uptake at 1 h ([4]; Organ distribution Tumor (tumor accumulation)): 3.92 %ID/g
tissue to tissue ratio at 1 h ([4]; Tumor-to-Organ ratio T/Blood): 2.58
tissue to tissue ratio at 1 h ([4]; Tumor-to-Organ ratio T/Brain): 13
tissue to tissue ratio at 1 h ([4]; Tumor-to-Organ ratio T/Heart): 4.19
tissue to tissue ratio at 1 h ([4]; Tumor-to-Organ ratio T/Intestine): 3.05
tissue to tissue ratio at 1 h ([4]; Tumor-to-Organ ratio T/Kidney): 0.05
tissue to tissue ratio at 1 h ([4]; Tumor-to-Organ ratio T/Liver): 3.3
tissue to tissue ratio at 1 h ([4]; Tumor-to-Organ ratio T/Lung): 1.6
tissue to tissue ratio at 1 h ([4]; Tumor-to-Organ ratio T/Muscle): 3.81
tissue to tissue ratio at 1 h ([4]; Tumor-to-Organ ratio T/Spleen): 0.48
